One assay has as its target T1, human P-Selectin protein (Homo sapiens, UniProt P16109).
T1 sequence (P16109 42-830): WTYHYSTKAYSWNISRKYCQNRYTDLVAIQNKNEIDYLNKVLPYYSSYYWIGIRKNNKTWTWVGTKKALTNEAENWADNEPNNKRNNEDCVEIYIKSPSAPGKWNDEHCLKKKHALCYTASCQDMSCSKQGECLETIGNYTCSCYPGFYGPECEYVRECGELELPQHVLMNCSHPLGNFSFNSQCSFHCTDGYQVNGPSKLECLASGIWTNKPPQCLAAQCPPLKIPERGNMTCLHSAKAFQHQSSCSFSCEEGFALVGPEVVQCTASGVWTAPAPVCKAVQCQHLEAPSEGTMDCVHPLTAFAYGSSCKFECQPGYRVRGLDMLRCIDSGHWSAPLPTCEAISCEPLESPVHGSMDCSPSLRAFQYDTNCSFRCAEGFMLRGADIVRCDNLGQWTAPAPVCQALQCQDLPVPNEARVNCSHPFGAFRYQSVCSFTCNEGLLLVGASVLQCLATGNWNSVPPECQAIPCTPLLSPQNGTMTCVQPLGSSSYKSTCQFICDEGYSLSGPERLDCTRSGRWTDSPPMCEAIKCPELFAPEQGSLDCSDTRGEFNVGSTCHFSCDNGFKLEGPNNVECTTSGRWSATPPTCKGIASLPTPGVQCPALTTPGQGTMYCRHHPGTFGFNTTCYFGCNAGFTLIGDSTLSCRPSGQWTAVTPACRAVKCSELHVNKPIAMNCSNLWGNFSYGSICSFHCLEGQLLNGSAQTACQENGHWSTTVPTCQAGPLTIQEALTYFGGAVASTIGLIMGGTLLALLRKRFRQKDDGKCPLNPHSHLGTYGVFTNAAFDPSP
Nature of the assay: SPR binding assay (Biacore). As to conditions: recombinant biotinylated human P-Selectin, 25° C. The method in brief: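 Biotinylated recombinant human P-Selectin was captured on a streptavidin chip (1000-1500 RU), and monomeric peptides were injected in PBS/0.05% Tween 20 with 0.5% DMSO at 25 °C (top 200 nM–50 μM, 2- or 3-fold series). Double-referenced data were fitted to a kinetic model with mass transport to give ka, kd and KD.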
On the technique in general: Surface plasmon resonance follows binding to a sensor surface in real time, without labels.

The target in assay [1] is T2, P-Selectin:PSGL1 interaction (Homo sapiens, UniProt P16109).
T2 construct: host or cells: HL-60 cells (ATCC, CCL-240) supply the PSGL-1 partner endogenously
T2 sequence (P16109 42-771 limits assumed): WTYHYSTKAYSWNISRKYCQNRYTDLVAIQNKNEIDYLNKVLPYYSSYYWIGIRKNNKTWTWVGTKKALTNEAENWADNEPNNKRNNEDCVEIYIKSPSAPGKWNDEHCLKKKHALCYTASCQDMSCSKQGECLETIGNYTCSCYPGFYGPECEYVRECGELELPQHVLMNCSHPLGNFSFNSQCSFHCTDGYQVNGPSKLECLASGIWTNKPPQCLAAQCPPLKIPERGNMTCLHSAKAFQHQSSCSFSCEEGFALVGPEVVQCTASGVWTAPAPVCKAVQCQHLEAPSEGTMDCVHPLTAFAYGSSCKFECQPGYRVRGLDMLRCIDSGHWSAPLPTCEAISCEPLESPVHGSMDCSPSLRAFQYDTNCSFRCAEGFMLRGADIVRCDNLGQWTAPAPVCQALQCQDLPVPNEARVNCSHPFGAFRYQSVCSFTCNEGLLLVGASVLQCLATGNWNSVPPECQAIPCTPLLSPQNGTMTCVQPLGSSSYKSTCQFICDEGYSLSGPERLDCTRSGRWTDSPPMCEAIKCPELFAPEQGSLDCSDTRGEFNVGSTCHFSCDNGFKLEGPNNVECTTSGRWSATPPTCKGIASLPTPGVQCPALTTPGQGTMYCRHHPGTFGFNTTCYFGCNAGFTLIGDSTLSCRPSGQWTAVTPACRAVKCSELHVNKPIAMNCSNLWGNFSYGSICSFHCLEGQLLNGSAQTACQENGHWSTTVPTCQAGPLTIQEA
Nature of the assay: Receptor ligand inhibition assay (P-Selectin binding to HL-60 cells). In kind it is cell-based. Particulars: geomean of n=3; for pIC50: 5 nM P-Selectin, HL-60 cells, read-out: IC50; for Inhibition at top concentration: 100−% response at top concentration. As for the experimental part:
Bicycle test samples, SelG1 (Crizanlizumab) were serially diluted maintaining 0.5% DMSO in assay buffer (25 mM HEPES, 121 mM NaCl, 5.4 mM KCl, 0.8 mM MgCl2, 1.8 mM CaCl2), 6 mM […], 5.5 mM glucose, 1% BSA, pH7.4) and transferred to 384 well clear bottom plates (Corning, 3712) with a final volume of 6 μL. […], of P-Selectin in imaging buffer (25 mM HEPES, 121 mM NaCl, 5.4 mM KCl, 0.8 mM MgCl2, 1.8 mM CaCl2), 6 mM […], 5.5 mM glucose, pH7.4) was added to give a 5 nM final concentration and incubated at room temperature for 15 minutes. HL-60 cells (ATCC, CCL-240) mixed with 1 μg/mL far red labelled wheat germ agglutinin (WGA, ThermoFisher W21404) and 1 μg/mL AlexaFluor 488-streptavidin (Invitrogen S11223) were added to the plate and incubated for 2 hours at room temperature in the absence of light. Staining and antibody binding were quantified by simultaneously scanning the microplates with 488 nm and 640 nm lasers on a mirrorball microplate cytometer, AF488 on FL2 triggering on AF647-WGA on FL4. Data was analysed in Dotmatics, using a four parameter logistic fit to generate IC50 values and % response. Percent inhibition was calculated using 100−% response at top concentration.

Structures are written as SMILES. pIC50, pKd: −log10 of the molar value. Like-named read-outs stand apart in the source and are kept apart here. Starred links: 1 amine or outer side, 2 acyl side, 3 side chain; linkers in the order of their positions; H or OH if unused. Positions of bridges follow the written chain, without caps; N, C: chain ends. Non-standard residues stand in square brackets, D forms with d. Residues, ends and D or L forms follow the SMILES beside them. Chains are numbered I, II in the order given. X2 = O=C(CCCC(=O)NCCOCCOCCOCCOCCOCCOCCOCCOCCOCCOCCOCCOCCOCCOCCOCCOCCOCCOCCOCCOCCOCCOCCOCCn1cc(CCC(=O)[*:2])nn1)NCCOCCOCCOCCOCCOCCOCCOCCOCCOCCOCCOCCOCCOCCOCCOCCOCCOCCOCCOCCOCCOCCOCCOCCn1cc(CCC(=O)[*:1])nn1; X1 = O=C(C[*:1])N1CCN(C(=O)C[*:2])CCN(C(=O)C[*:3])CC1; 1Nal = N[C@@H](Cc1cccc2ccccc12)C(=O)O

For the compound `CC(C)C[C@@H]1NC(=O)[C@H](CO)NC(=O)[C@@H]2CCCN2C(=O)[C@H](C(C)C)NC(=O)[C@H](CC(=O)O)NC(=O)[C@@H]2CSCC(=O)N3CCN(CCN(CC3)C(=O)CSC[C@@H](C(=O)N[C@@H](C)C(N)=O)NC(=O)[C@@H]3CCCN3C1=O)C(=O)CSC[C@H](NC(=O)[C@H](C)N)C(=O)N[C@@H](CC(=O)O)C(=O)N[C@@H](C)C(=O)N[C@@H](CC(=O)O)C(=O)N[C@@H](Cc1cccc3ccccc13)C(=O)N2` [BCY12027, A-(SEQ ID NO: 2)-A] (H-ACDAD[1Nal]CDVPSLPCA-NH2; linker 2-7-14 via X1; N-terminus assumed), the pKd (usually the Kd on a negative log10 scale, so that one unit is a factor of ten) on human P-Selectin protein (read-out: Affinity KD determined by SPR) is more than 8.00. Moreover, in assay [1], the pIC50 (commonly −log10 of the IC50, conventionally taken in molar units) is less than 7.43 and the Inhibition (in general, the share of the control response that was lost under treatment) at top concentration is 36%.

In the case of `CC(C)C[C@@H]1NC(=O)[C@H](CO)NC(=O)[C@@H]2CCCN2C(=O)[C@H](C(C)C)NC(=O)[C@H](CC(=O)O)NC(=O)[C@@H]2CSCC(=O)N3CCN(CCN(CC3)C(=O)CSC[C@@H](C(=O)N[C@@H](C)C(=O)N[C@@H](CCCCNC(=O)CCc3cn(CCOCCOCCOCCOCCOCCOCCOCCOCCOCCOCCOCCOCCOCCOCCOCCOCCOCCOCCOCCOCCOCCOCCOCCNC(=O)CCCC(=O)NCCOCCOCCOCCOCCOCCOCCOCCOCCOCCOCCOCCOCCOCCOCCOCCOCCOCCOCCOCCOCCOCCOCCOCCn4cc(CCC(=O)NCCCC[C@H](NC(=O)[C@H](C)NC(=O)[C@@H]5CSCC(=O)N6CCN7CCN(CC6)C(=O)CSC[C@H](NC(=O)[C@H](Cc6c[nH]c8ccccc68)NC(=O)[C@H](CC(=O)O)NC(=O)[C@H](C)NC(=O)[C@H](CC(=O)O)NC(=O)[C@@H](NC(=O)[C@H](C)N)CSCC7=O)C(=O)N[C@@H](CC(=O)O)C(=O)N[C@@H](C(C)C)C(=O)N6CCC[C@H]6C(=O)N[C@@H](CO)C(=O)N[C@@H](CC(C)C)C(=O)N6CCC[C@H]6C(=O)N5)C(N)=O)nn4)nn3)C(N)=O)NC(=O)[C@@H]3CCCN3C1=O)C(=O)CSC[C@H](NC(=O)[C@H](C)N)C(=O)N[C@@H](CC(=O)O)C(=O)N[C@@H](C)C(=O)N[C@@H](CC(=O)O)C(=O)N[C@@H](Cc1c[nH]c3ccccc13)C(=O)N2` [BCY12257] (I: H-ACDADWCDVPSLPCAK-NH2 / II: H-ACDADWCDVPSLPCAK-NH2; linker I:2-I:7-I:14, II:2-II:7-II:14 via X1; linker I:16-II:16 via X2), the pKd at human P-Selectin protein (Affinity KD determined by SPR) was 7.94. In assay [1], the negative logarithm of the IC50 (pIC50) is less than 7.11 and the “Inhibition at top concentration” value was found to be 54%.

As for `CC(C)C[C@@H]1NC(=O)[C@H](CO)NC(=O)[C@@H]2CCCN2C(=O)[C@H](C(C)C)NC(=O)[C@H](CC(=O)O)NC(=O)[C@@H]2CSCC(=O)N3CCN(CCN(CC3)C(=O)CSC[C@@H](C(=O)N[C@@H](C)C(=O)N[C@@H](CCCCNC(=O)CCc3cn(CCOCCOCCOCCOCCOCCOCCOCCOCCOCCOCCOCCOCCOCCOCCOCCOCCOCCOCCOCCOCCOCCOCCOCCNC(=O)CCCC(=O)NCCOCCOCCOCCOCCOCCOCCOCCOCCOCCOCCOCCOCCOCCOCCOCCOCCOCCOCCOCCOCCOCCOCCOCCn4cc(CCC(=O)NCCCC[C@H](NC(=O)[C@H](C)NC(=O)[C@@H]5CSCC(=O)N6CCN7CCN(CC6)C(=O)CSC[C@H](NC(=O)[C@H](Cc6cccc8ccccc68)NC(=O)[C@H](CC(=O)O)NC(=O)[C@H](C)NC(=O)[C@H](CC(=O)O)NC(=O)[C@@H](NC(=O)[C@H](C)N)CSCC7=O)C(=O)N[C@@H](CC(=O)O)C(=O)N[C@@H](C(C)C)C(=O)N6CCC[C@H]6C(=O)N[C@@H](CO)C(=O)N[C@@H](CC(C)C)C(=O)N6CCC[C@H]6C(=O)N5)C(N)=O)nn4)nn3)C(N)=O)NC(=O)[C@@H]3CCCN3C1=O)C(=O)CSC[C@H](NC(=O)[C@H](C)N)C(=O)N[C@@H](CC(=O)O)C(=O)N[C@@H](C)C(=O)N[C@@H](CC(=O)O)C(=O)N[C@@H](Cc1cccc3ccccc13)C(=O)N2` [BCY12258] (I: H-ACDAD[1Nal]CDVPSLPCAK-NH2 / II: H-ACDAD[1Nal]CDVPSLPCAK-NH2; linker I:2-I:7-I:14, II:2-II:7-II:14 via X1; linker I:16-II:16 via X2), the pKd at human P-Selectin protein (Affinity KD determined by SPR) is 9.39. Further, in assay [1], the negative logarithm of the IC50 (pIC50) is less than 7.01 and the “Inhibition at top concentration” value was 57%.

For the origin of these results see patent US12150998B2, “Bicyclic peptide ligands specific for P-selectin” (BicycleTx Limited, priority 2021, dated 2024).
